In patent US8338404B2, “Composition and method for reducing allergen” (Kyowa Hakko Bio Co., Ltd., priority 2007, dated 2012) one finds Mite allergen concentration and Reduction data, which are given here for two compounds.

This test addresses T1, mite allergen Derf2 (Dermatophagoides farinae, UniProt Q00855).
T1 construct: mite allergen Derf2 contained in standard house dust; from tissue; host or cells: standard house dust (natural mite allergen, not recombinant)
T1 sequence (Q00855 18-146): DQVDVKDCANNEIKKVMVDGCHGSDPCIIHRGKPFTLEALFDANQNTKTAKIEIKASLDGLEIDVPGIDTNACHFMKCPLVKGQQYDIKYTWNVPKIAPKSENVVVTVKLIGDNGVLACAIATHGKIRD
Briefly: Effects of processed fiber for reducing mite allergen (sandwich ELISA). To be noted: 5% treatment solution, 1 hour; for Mite allergen concentration: 1 ml mite allergen buffer. The class given is biochemical. On the procedure:
At the outset, anti-Derf2 monoclonal antibody 15E11, which was diluted to 2 μg/ml in phosphate buffer (pH 7.4, containing 0.1% by weight of NaN3) was applied to the F16 Maxisorp Nunc-Immuno Module plate (NUNC) in amounts of 100 μl per well and subjected to sensitization at 4° C. for at least 1 day. After sensitization, the liquid was removed, a blocking reagent (1% by weight of bovine serum albumin and phosphate buffer (pH 7.2, containing 0.1% by weight of NaN3)) was added in amounts of 100 μl per well, and the reaction was allowed to proceed at 37° C. for 60 minutes. After the reaction, the plate was washed in phosphate buffer (pH 7.2, containing 0.1% by weight of polyoxyethylene (20) sorbitan monolaurate). Subsequently, the sample resulting from the reaction of mite allergens with the aforementioned solution was added dropwise thereto in amounts of 100 μl per well, and the reaction was allowed to proceed at 37° C. for 60 minutes.
After the reaction, the plate was washed in phosphate buffer (pH 7.2, containing 0.1% by weight of polyoxyethylene (20) sorbitan monolaurate). The peroxidase-labeled anti-Derf2 monoclonal antibody was dissolved to 200 μg/ml in distilled water, the resultant was diluted 1,000-fold with phosphate buffer (pH 7.2, containing 1% by weight of bovine serum albumin and 0.1% by weight of polyoxyethylene (20) sorbitan monolaurate), and the resulting solution was added in amounts of 100 μl per well. The reaction was allowed to proceed at 37° C. for 60 minutes, and the plate was first washed with phosphate buffer (pH 7.2, containing 0.1% by weight of polyoxyethylene (20) sorbitan monolaurate) and then with distilled water. Ortho-phenylenediamine dihydrochloride (26 mg tablet, Sigma Chemical Co.) and a hydrogen peroxide solution (13 μl) were added to 13 ml of 0.1 mol/l phosphate buffer (pH 6.2), the resultant was added in amounts of 100 μl per well, and the reaction was allowed to proceed at 37° C. for 5 minutes. Immediately thereafter, 50 μl each of 2 mol/l H2SO4 was introduced so as to terminate the reaction, and the absorbance (OD 490 nm) was assayed using a microplate spectrophotometer (Bio-Rad Laboratories Inc.)
The allergen-reducing fabric obtained in Example 8 was tested in terms of the effects of allergen reduction. As a control, a white cotton broadcloth and polyethylene terephthalate (PET) cloth were soaked via a padding method in an aqueous solution of 5% tannic acid (an equivalent of JP Patent Publication (kokai) No. 61-44821 A (1986)), the clothes were dried at 110° C. for 2 minutes, and the resultants were tested in terms of the effects of allergen reduction.
The clothes (5 cm×5 cm each) were introduced into reclosable plastic bags, 1 ml of phosphate buffer (pH 7.2) of mite allergen was added thereto, and the resultants were allowed to stand for 1 hour. The centrifuged samples were subjected to enzyme immunoassay (i.e., sandwich ELISA) in the same manner as in Test Example 1 to inspect the effects of reducing mite allergen Derf2.
(In general: ELISA stands for enzyme-linked immunosorbent assay.)

[1] abbreviates: PET cloth 5 cm×5 cm, not treated: 970 ng/ml.
Setting [2] is: cotton broadcloth 5 cm×5 cm, not treated: 720 ng/ml.

`CC(=O)N1C[C@H](O)C[C@H]1C(=O)O` [N-acetyl-trans-4-hydroxy-L-proline] gave a Mite allergen concentration under setting [1] of 2.3 ng/mL and a Mite allergen concentration under setting [2] of 3.5 ng/mL. The Reduction amounted to 99.8% (PET cloth 5 cm×5 cm) and 99.5% (cotton broadcloth 5 cm×5 cm).
Taken in the same sequence, the figures for `O=C(OC[C@H]1O[C@@H](OC(=O)c2cc(O)c(O)c(OC(=O)c3cc(O)c(O)c(O)c3)c2)[C@H](OC(=O)c2cc(O)c(O)c(OC(=O)c3cc(O)c(O)c(O)c3)c2)[C@@H](OC(=O)c2cc(O)c(O)c(OC(=O)c3cc(O)c(O)c(O)c3)c2)[C@@H]1OC(=O)c1cc(O)c(O)c(OC(=O)c2cc(O)c(O)c(O)c2)c1)c1cc(O)c(O)c(OC(=O)c2cc(O)c(O)c(O)c2)c1` [tannic acid] were 190 ng/mL, 120 ng/mL, 80% and 83%.
